Article PMC12546632, “The role of cytochrome bc1 inhibitors in future tuberculosis treatment regimens” (Nature Communications, 2025)
Converted amounts (≈) assume the structure as drawn. “And” between values parts separate entries of the source, which are not always exact repeats. Equal values may be shown once. Read-outs that look alike come from different tables or passages of the source.

Tests used:
[1] = system: M. tuberculosis HN878; details: telacebec added to BPaC, after 4 weeks of treatment; cited from earlier work
[2] = system: M. tuberculosis ΔcydAB (Parent); assay: microbe, parasite or virus in culture; type: cell-based; details: Mycobacterium tuberculosis
[3] = system: WT H37Rv; type: cell-based, Mycobacterium tuberculosis; details: biological replicates
[4] = system: N1283 clinical isolate; type: cell-based, Mycobacterium tuberculosis; details: biological replicates

CCc1nc2ccc(Cl)cn2c1C(=O)NCc1ccc(N2CCC(c3ccc(OC(F)(F)F)cc3)CC2)cc1 [telacebec, reference compound]
reduction in lung bacterial burden compared to BPaC alone [1]: 2 log | MIC50 [2]: 0.01 µM (≈ 5.57 ng/mL) | CFU counts ([3]; Conc 8 nM): 30000000 CFU and 50000000 CFU | CFU counts ([3]; Conc 32 nM): 19000000 CFU and 32000000 CFU and 49500000 CFU | CFU counts ([3]; Conc 128 nM): 20000000 CFU and 17000000 CFU and 41500000 CFU and 12000000 CFU | CFU counts ([4]; Conc 8 nM): 16000000 CFU and 19000000 CFU and 60000000 CFU and 40000000 CFU | CFU counts ([4]; Conc 32 nM): 130000 CFU and 900000 CFU and 7000000 CFU and 8000000 CFU | CFU counts ([4]; Conc 128 nM): 180000 CFU and 380000 CFU and 120000 CFU and 150000 CFU
